Where two headings read alike, the source gives them in different places.
Tests used:
[1] = tested on: MCF-7 cell line (breast cancer); assay: MTT cytotoxicity assay, MCF-7; type: cell-based, human
Experimental: (§1) MTT assay was engaged to evaluate the anticancer activity of synthesized compounds P(1–21) against various human cancer cell lines (breast cancer- MCF-7 and colorectal carcinoma- HCT116) [31–34].
(§2) The MTT test was carried out using the 3-(4,5-dimethyl-2-thiazolyl)-2,5-diphenyl-2H-tetrazolium (MTT) colorimetric test [33, 34]. […] The MTT test based on the reduction of MTT (yellow color) depends on cellular metabolic activities due to H-dependent cellular NAD (P) oxidoreductase enzymes [33]. […] The final product of MTT reduction is a purple formazan that can be easily dissolved in DMSO.
(§3) To test the anticancer activities of the synthesized compounds (selected based on docking studies), we evaluated the antiproliferative activity of compounds P (1–21) against HCT116 and MCF-7 cell lines. All the experiments were repeated at least thrice independently, the 50% inhibitory concentration (IC50) of new hybrids was determined (as the anticancer drug concentration causing a 50% reduction in cell viability) and calculated using a trendline equation.

[2] = tested on: HCT116 cell line (colorectal carcinoma); assay: MTT cytotoxicity assay, HCT116; type: cell-based, human
Experimental: as §1, §2, §3

[3] = target: recombinant human Aurora-A (Homo sapiens, UniProt O14965); assay: biochemical; conditions: NADH consumption at 340 nm, 30 °C; read-out: IC50 ± SD, inhibition of Aurora-A kinase
Experimental: At 30 °C, dilute enzyme (aurora A), substrates (NADH, NaCl, MgCl2, PEP, LDH, PK, and histones H3), ATP, and inhibitors (selected compounds as per in silico studies) in kinase buffer (HEPES) and this to 96 well plates and incubate for 60 min. Once the ATP substrate was added, the reaction began. With the reaction, NADH was continuously transformed into NAD^+ The activity of Aurora-A can be assayed by measuring the consumption of nicotinamide adenine dinucleotide plus hydrogen (NADH) at 340 nm. Absorbance at 340 nm was continuously recorded for 10 min. Inhibition of recombinant human Aurora-A by inhibitors was initially screened via an enzyme-coupled continuous spectrophotometric assay (Kishore et al., 2008; Aixia et al., 2011; Fancelli D et al., 2006).

[4] = tested on: HCT 116 and MCF-7 cell lines; assay: cells; conditions: Homo sapiens, read-out: IC50, cytotoxicity, range over two cancer cell lines
Experimental: as §1, §2, §3

[5] = Homo sapiens, MCF7, read-out: IC50 ± SD, MCF-7, inhibition of growth of tumor cell lines
[6] = Homo sapiens, HCT-116, read-out: IC50 ± SD, HCT-116, inhibition of growth of tumor cell lines

recombinant human Aurora-A, sequence (O14965 whole entry): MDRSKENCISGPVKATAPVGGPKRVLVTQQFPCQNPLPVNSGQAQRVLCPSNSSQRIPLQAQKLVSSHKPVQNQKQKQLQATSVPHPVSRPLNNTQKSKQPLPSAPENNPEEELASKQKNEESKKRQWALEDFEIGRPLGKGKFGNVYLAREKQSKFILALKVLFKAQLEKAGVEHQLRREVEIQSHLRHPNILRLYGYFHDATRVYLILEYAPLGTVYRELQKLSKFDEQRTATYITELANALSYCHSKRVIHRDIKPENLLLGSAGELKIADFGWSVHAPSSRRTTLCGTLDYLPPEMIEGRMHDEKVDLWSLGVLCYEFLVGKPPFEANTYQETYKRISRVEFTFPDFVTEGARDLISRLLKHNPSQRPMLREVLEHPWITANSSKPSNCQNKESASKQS

Row | Compound | IC50 [1, 5] [µM] | IC50 [2, 6] [µM] | IC50 [3] [µM] | melting point [°C] | IC50 [4] [µM] | IC50 ([1]; Homo sapiens, MCF7, MTT assay, MCF-7, read-out: IC50 ± SD, MCF-7, inhibition of growth of tumor cell lines) [µM] | IC50 ([1]; MTT assay, MCF-7, listed as VX-680 (Tozasertib), read-out: IC50 ± SD, MCF-7, inhibition of growth of tumor cell lines) [µM] | IC50 ([2]; Homo sapiens, HCT-116, MTT assay, HCT116, read-out: IC50 ± SD, HCT-116, inhibition of growth of tumor cell lines) [µM] | IC50 ([2]; MTT assay, HCT116, listed as VX-680 (Tozasertib), read-out: IC50 ± SD, HCT-116, inhibition of growth of tumor cell lines) [µM]
1 | O=C1CSC(c2cn(C(=O)c3ccncc3)nc2-c2ccc([N+](=O)[O-])cc2)N1c1ccccc1 (stereo not drawn) [Compound P-1, 2-(1-isonicotinoyl-3-(4-nitrophenyl)-1H-pyrazol-4-yl)-3-phenylthiazolidin-4-one] | 4.4 ± 0.18 | 2.3 ± 0.14 | 2.34 ± 0.36 | – | – | – | – | – | –
2 | O=C1CSC(c2cn(C(=O)c3ccncc3)nc2-c2ccc([N+](=O)[O-])cc2)N1c1ccc([N+](=O)[O-])cc1 (stereo not drawn) [Compound P-2, 2-(1-isonicotinoyl-3-(4-nitrophenyl)-1H-pyrazol-4-yl)-3-(4-nitrophenyl)thiazolidin-4-one] | 3.26 ± 0.31 | 3.52 ± 0.33 | 3.57 ± 0.35 | – | – | – | – | – | –
3 | O=C1CSC(c2cn(C(=O)c3ccncc3)nc2-c2ccc([N+](=O)[O-])cc2)N1c1ccccc1[N+](=O)[O-] (stereo not drawn) [Compound P-3, 2-(1-isonicotinoyl-3-(4-nitrophenyl)-1H-pyrazol-4-yl)-3-(2-nitrophenyl)thiazolidin-4-one] | 4.49 ± 0.42 | 4.47 ± 0.45 | 7.25 ± 0.8 | 282 to 284 | – | – | – | – | –
4 | O=C1CSC(c2cn(C(=O)c3ccncc3)nc2-c2ccc([N+](=O)[O-])cc2)N1c1ccc(Cl)cc1 (stereo not drawn) [Compound P-4, 3-(4-chlorophenyl)-2-(1-isonicotinoyl-3-(4-nitrophenyl)-1H-pyrazol-4-yl)thiazolidin-4-one] | 2.55 ± 0.07 | 1.35 ± 0.07 | 1.33 ± 0.15 | 286 to 288 | – | – | – | – | –
5 | O=C1CSC(c2cn(C(=O)c3ccncc3)nc2-c2ccc([N+](=O)[O-])cc2)N1c1cccc(Cl)c1 (stereo not drawn) [Compound P-5, 3-(3-chlorophenyl)-2-(1-isonicotinoyl-3-(4-nitrophenyl)-1H-pyrazol-4-yl)thiazolidin-4-one] | 4.01 ± 0.1 | 3.88 ± 0.16 | 4.79 ± 0.83 | 274 to 276 | – | – | – | – | –
6 | COc1ccc(N2C(=O)CSC2c2cn(C(=O)c3ccncc3)nc2-c2ccc([N+](=O)[O-])cc2)cc1 (stereo not drawn) [Compound P-6, 2-(1-isonicotinoyl-3-(4-nitrophenyl)-1H-pyrazol-4-yl)-3-(4-methoxyphenyl)thiazolidin-4-one] | 0.44 ± 0.06 | 0.37 ± 0.15 | 0.18 ± 0.05 | – | 0.37 to 0.44 | – | – | – | –
7 | COc1ccccc1N1C(=O)CSC1c1cn(C(=O)c2ccncc2)nc1-c1ccc([N+](=O)[O-])cc1 (stereo not drawn) [Compound P-7, 2-(1-isonicotinoyl-3-(4-nitrophenyl)-1H-pyrazol-4-yl)-3-(2-methoxyphenyl)thiazolidin-4-one] | 0.88 ± 0.03 | 0.62 ± 0.03 | 0.42 ± 0.12 | 250 to 252 | – | – | – | – | –
8 | COc1ccc(-c2nn(C(=O)c3ccncc3)cc2C2SCC(=O)N2c2ccccc2)cc1 (stereo not drawn) [Compound P-8, 2-(1-isonicotinoyl-3-(4-methoxyphenyl)-1H-pyrazol-4-yl)-3-phenylthiazolidin-4-one] | 6.08 ± 0.24 | 5.35 ± 0.27 | 7.32 ± 0.69 | 300 to 302 | – | – | – | – | –
9 | COc1ccc(-c2nn(C(=O)c3ccncc3)cc2C2SCC(=O)N2c2ccc([N+](=O)[O-])cc2)cc1 (stereo not drawn) [Compound P-9, 2-(1-isonicotinoyl-3-(4-methoxyphenyl)-1H-pyrazol-4-yl)-3-(4-nitrophenyl)thiazolidin-4-one] | 1.62 ± 0.05 | 1.45 ± 0.18 | 1.45 ± 0.05 | 308 to 310 | – | – | – | – | –
10 | COc1ccc(-c2nn(C(=O)c3ccncc3)cc2C2SCC(=O)N2c2ccccc2[N+](=O)[O-])cc1 (stereo not drawn) [Compound P-10, 2-(1-isonicotinoyl-3-(4-methoxyphenyl)-1H-pyrazol-4-yl)-3-(2-nitrophenyl)thiazolidin-4-one] | 1.03 ± 0.11 | 0.78 ± 0.04 | 0.65 ± 0.09 | 322 to 324 | – | – | – | – | –
11 | COc1ccc(-c2nn(C(=O)c3ccncc3)cc2C2SCC(=O)N2c2ccc(Cl)cc2)cc1 (stereo not drawn) [Compound P-11, 3-(4-chlorophenyl)-2-(1-isonicotinoyl-3-(4-methoxyphenyl)-1H-pyrazol-4-yl)thiazolidin-4-one] | 2.53 ± 0.19 | 2.54 ± 0.2 | 2.78 ± 0.14 | 318 to 320 | – | – | – | – | –
12 | COc1ccc(-c2nn(C(=O)c3ccncc3)cc2C2SCC(=O)N2c2cccc(Cl)c2)cc1 (stereo not drawn) [Compound P-12, 3-(3-chlorophenyl)-2-(1-isonicotinoyl-3-(4-methoxyphenyl)-1H-pyrazol-4-yl)thiazolidin-4-one] | 4.35 ± 0.47 | 4.06 ± 0.38 | 5.59 ± 0.37 | 338 to 340 | – | – | – | – | –
13 | COc1ccc(-c2nn(C(=O)c3ccncc3)cc2C2SCC(=O)N2c2ccc(OC)cc2)cc1 (stereo not drawn) [Compound P-13, 2-(1-isonicotinoyl-3-(4-methoxyphenyl)-1H-pyrazol-4-yl)-3-(4-methoxyphenyl) thiazolidin-4-one] | 8.21 ± 0.35 | 5.87 ± 0.42 | 12.4 ± 0.85 | – | – | – | – | – | –
14 | COc1ccc(-c2nn(C(=O)c3ccncc3)cc2C2SCC(=O)N2c2ccccc2OC)cc1 (stereo not drawn) [Compound P-14] | – | – | – | 336 to 338 | – | – | – | – | –
15 | O=C1CSC(c2cn(C(=O)c3ccncc3)nc2-c2ccc(Br)cc2)N1c1ccccc1 (stereo not drawn) [Compound P-15, 2-(3-(4-bromophenyl)-1-isonicotinoyl-1H-pyrazol-4-yl)-3-phenylthiazolidin-4-one] | 2.34 ± 0.27 | 2.18 ± 0.15 | 2.1 ± 0.13 | 256 to 258 | – | – | – | – | –
16 | O=C1CSC(c2cn(C(=O)c3ccncc3)nc2-c2ccc(Br)cc2)N1c1ccc([N+](=O)[O-])cc1 (stereo not drawn) [Compound P-16, 2-(3-(4-bromophenyl)-1-isonicotinoyl-1H-pyrazol-4-yl)-3-(4-nitrophenyl)thiazolidin-4-one] | 2.25 ± 0.25 | 2.01 ± 0.11 | 2.1 ± 0.15 | 268 to 270 | – | – | – | – | –
17 | O=C1CSC(c2cn(C(=O)c3ccncc3)nc2-c2ccc(Br)cc2)N1c1ccc(Cl)cc1 (stereo not drawn) [Compound P-18, 2-(3-(4-bromophenyl)-1-isonicotinoyl-1H-pyrazol-4-yl)-3-(4-chlorophenyl)thiazolidin-4-one] | 1.77 ± 0.15 | 1.52 ± 0.09 | 1.62 ± 0.11 | 244 to 246 | – | – | – | – | –
18 | O=C1CSC(c2cn(C(=O)c3ccncc3)nc2-c2ccc(Br)cc2)N1c1cccc(Cl)c1 (stereo not drawn) [Compound P-19] | 1.21 ± 0.05 | 1.02 ± 0.12 | 0.79 ± 0.07 | 248 to 250 | – | – | – | – | –
19 | COc1ccc(N2C(=O)CSC2c2cn(C(=O)c3ccncc3)nc2-c2ccc(Br)cc2)cc1 (stereo not drawn) [Compound P-20, 2-(3-(4-bromophenyl)-1-isonicotinoyl-1H-pyrazol-4-yl)-3-(4-methoxyphenyl) thiazolidin-4-one] | 0.56 ± 0.06 | 0.42 ± 0.08 | 0.22 ± 0.08 | – | 0.39 to 0.56 | – | – | – | –
20 | COc1ccccc1N1C(=O)CSC1c1cn(C(=O)c2ccncc2)nc1-c1ccc(Br)cc1 (stereo not drawn) [Compound P-21] | – | – | – | 260 to 262 | – | – | – | – | –
21 | Cc1cc(Nc2cc(N3CCN(C)CC3)nc(Sc3ccc(NC(=O)C4CC4)cc3)n2)[nH]n1 [VX-680, Tozasertib, reference compound] | – | – | – | – | – | 0.4 ± 0.03 | 0.38 ± 0.02 | 0.32 ± 0.05 | 0.3 ± 0.03

Source: PMC9382805, “Design, synthesis, anticancer evaluation and docking studies of novel 2-(1-isonicotinoyl-3-phenyl-1H-pyrazol-4-yl)-3-phenylthiazolidin-4-one derivatives as Aurora-A kinase inhibitors” (BMC Chemistry, 2022)
